In article PMC5578202, “Bioaccessibility, Intestinal Permeability and Plasma Stability of Isorhamnetin Glycosides from Opuntia ficus-indica (L.)” (International Journal of Molecular Sciences, 2017):
Like-named read-outs stand apart in the source and are kept apart here.

Legend:
[1] = test system: Caco-2 cell monolayer; conditions: cited from earlier work
[2] = Simulated in vitro digestion (oral, gastric, intestinal): recovery percentage / bioaccessibility; assay type: in vitro ADME; conditions: human-simulated digestion
Procedure: The simulated in vitro digestion model was performed based on the methodology described by Garrett et al., with some modifications. Isorhamnetin aglycones and O. ficus-indica extract were subjected to digestion in triplicate. A three-step procedure was applied to simulate the digestive processes in the mouth, stomach, and small intestine. The digestion started with an amount of extract that contained an equivalent of 10 mg of isorhamnetin (60 mg) or 10 mg of isorhamnetin standard. An α-amylase solution (75 Units/mL) was added to 20 mL of solution, adjusted to pH 6.9, which was incubated for 10 min. This mixture was shaken using a VWR® Incubating orbital shaker (Thorofare, NJ, USA) for 10 min at 37 °C and 55 rpm. The gastric digestion started by adjusting the pH to 2 with 1 M HCl and, after, 2 mL of porcine-pepsin solution was added (40 mg/mL in 0.1 M HCl). This mixture was shaken in an incubator for 1 h at 37 °C and 95 rpm. For the intestinal digestion, the solution was previously adjusted to pH 5.3 with 0.9 M NaHCO3 and then a mixture of bile salts and pancreatin (6 mL containing porcine-pancreatin (2 mg/mL), and bile salts (12 mg/mL) dissolved in a NaHCO3 solution (100 mM), were added. Concentrations of pancreatin and bile extract in the final solution were 0.4 and 2.4 mg/mL, respectively. Then, the solution was adjusted to pH 7.5 by adding 1N NaOH. The mixture was shaken in an incubator for 2 h at 37 °C and 95 rpm. The enzyme reaction was inactivated by placing the sample in a hot water bath (80 °C for 2 min). At the end of the process, the digested samples were centrifuged at 13,000× g and 4 °C for 5 min (Thermo Scientific SL 16R centrifuge, Osterode, Germany). The resulting supernatant, which was considered the bioaccessible or absorbable fraction, was recovered. The recovery percentage of each compound was calculated based on the concentration in the supernatant recovered after each phase (oral, gastric, and intestinal) of the in vitro digestion. This fraction was also tested for permeability and potential bioavailability of the isorhamnetin glycosides present in the O. ficus-indica extract.

[3] = test system: Caco-2/HT-29 cell monolayer; experiment: Permeability across Caco-2/HT-29 (75:25) co-culture monolayer; assay type: in vitro ADME, human; conditions: for Efflux ratio [Papp(BL-AP)/Papp(AP-BL)]: Caco-2/HT-29 (Figure 2b); for Apparent permeability coefficient apical to basolateral, Papp(AP-BL): Caco-2/HT-29 co-culture, digested samples
Procedure: (§1) Caco-2 and HT-29 cell lines were obtained from ATCC (American Tissue Culture Collection, Rockville, MD, USA). Cells were cultured in DMEM-F12 supplemented with 10% fetal bovine serum and were maintained at 37 °C in 5% CO2. Before the start of the permeability experiments, the cytotoxicity of isorhamnetin and the O. ficus-indica extract on Caco-2/HT-29 (75:25) co-culture were tested to ensure that the viability of the cells was over 90%. Permeability experiments were performed according to Xie et al. and Hubatsch et al. with slight modifications. Caco-2 and HT-29 co-culture cell monolayer (75:25) were seeded on 6-well transwell plates, with inserts having a polycarbonate membrane with a surface area of 4.71 cm^2 and a pore diameter of 0.4 µm (Costar, Corning, NY, USA) at a final seeding density of 1 × 10^6 cells/insert, cultured for 21 days. Caco-2 cell monolayers were washed with warm HBSS medium (pH 7.4) and then digested samples of isorhamnetin aglycone or O. ficus-indica extract were added to the apical side (AP: 1.5 mL), whereas the receiving compartment or basolateral side (BL: 2.5 mL) contained the corresponding volume of HBSS. Plates with transwell inserts were incubated at 37 °C in an orbital shaking incubator at 100 rpm. Aliquots of 1 mL were withdrawn from both compartments at 15, 30, 60 and 120 min, and fresh HBSS was added to replace the withdrawn volume. Samples were immediately frozen and preserved at −20 °C until HPLC analysis. All experiments were performed in triplicate.
(§2) The apparent permeability coefficient (Papp) was calculated from the cumulative amount permeated versus the time profile according the following Equation (1): Papp = (dQ/dt) × (V/A × C0) (1) where dQ/dt is the change in drug concentration in the receiver solution (µM/s), V represents the volume of the solution in the receiving compartment (mL), A denotes the membrane surface area (cm^2), and C0 is the initial concentration in the donor compartment (µM).
(§3) The integrity of the monolayers was measured at the beginning and the end of the experiment using the paracellular permeability of lucifer yellow (LY). Fluorescence was measured at 530 nm (emission) and 485 nm (excitation) using a microplate reader (Synergy HT, BioTek, Winooski, VM). The data from membranes displaying an LY apparent permeability coefficient (Papp) > 1 × 10^−6 cm/s were excluded.

[4] = cited from earlier work
[5] = cited from earlier work; for Recovery after intestinal digestion: ref Ydjedd et al. [40]
[6] = Permeability across Caco-2/HT-29 (75:25) co-culture monolayer; assay type: in vitro ADME, human; conditions: human, pH 7.4
Procedure: as §1, §2, §3

[7] = Plasma stability / pharmacokinetics after intravenous dose in rats; set-up: species or system rat; conditions: male, Wistar, in vivo, intravenous dose 2 mg/kg
Procedure: Twenty-seven male Wistar rats, weighing approximately 200 g (eight weeks old), were divided in nine groups of three animals each. One group was taken as a control and received only a saline solution through the caudal vein. Four groups received an intravenous dose (2 mg/kg) of the O. ficus-indica extract and the last four groups received the commercial isorhamnetin standard. The dosage was determined based on results previously reported by Antunes-Ricardo et al.. Animals were anaesthetized with ketamine/xilazyne (60 mg/kg; 10 mg/kg), and then blood was extracted by intracardiac puncture at different sampling times (0.25, 0.5, 1 and 1.5 h). This procedure was randomized to avoid any bias results. After blood extraction, the animals were sacrificed by cervical dislocation. Plasma was obtained as previously described (see Section 4.6) and the samples were stored at −20 °C until analysis.
Plasma samples were spiked with 25 µL of quercetin (30 µg/mL) as an internal standard. Then, plasma samples were submitted to an acid hydrolysis with 2 M HCl for 180 min at 80 °C. Then, samples were extracted with 100% methanol (10:1, v/v), centrifuged, and the resulting supernatants were quantified by HPLC-PDA. The area under the concentration-time curve (AUC0−1.5 h) was calculated based on the linear trapezoidal method. The elimination half-life (t1/2) was determined by linear regression of the terminal portion of the plasma concentration-time data. The plasma clearance (CLplasma) was calculated by multiplying the volume of distribution, Vd, by the elimination constant, Kel, according to the following Equation (3): CLplasma: Vd × Kel (3)

[8] = set-up: method as in Duan et al. [24]; conditions: ref Duan et al. [24]; cited from earlier work
[9] = intestinal phase, pH 7.5, pancreatin and bile salts
[10] = Caco-2 monolayer, ref Xie et al. [47]

## O=c1cc(-c2ccccc2)oc2cc(O)cc(O)c12 [chrysin]
[1]; ref [36]
  Permeability basolateral to apical relative to apical to basolateral: two-fold higher

## isorhamnetin-3-O-glucosyl-pentoside [IGP]
[2]; gastric phase, pH 2, pepsin
  Recovery percentage after gastric digestion phase: 93.5 ± 3.3 ^A,a %
[2]; [9]
  Recovery percentage after intestinal digestion phase: 73.3 ± 3.5 ^A,b %
[2]; oral phase, pH 6.9, α-amylase
  Recovery percentage after oral digestion phase: 96.6 ± 4.7 ^A,a %
[3]
  Efflux ratio [Papp(BL-AP)/Papp(AP-BL)]: 3.0

## COc1ccc([C@@H]2CC(=O)c3c(O)cc(O[C@@H]4O[C@H](CO)[C@@H](O)[C@H](O)[C@H]4O)cc3O2)cc1O [hesperetin-7-O-glucoside]
[4]; human, in vivo
  Bioavailability higher than hesperetin-7-O-rutinoside: 76%
[4]; in vivo, po
  tmax: 30 ± 6 min
[4]; in vivo
  Improvement of bioavailability on removing the rhamnose moiety from hesperetin-7-glucosyl-rhamnoside: two-fold

## COc1ccc([C@@H]2CC(=O)c3c(O)cc(O[C@@H]4O[C@H](CO[C@@H]5O[C@@H](C)[C@H](O)[C@@H](O)[C@H]5O)[C@@H](O)[C@H](O)[C@H]4O)cc3O2)cc1O [hesperetin-7-O-rutinoside]
[4]; after oral consumption, ref [32]
  tmax: 288 ± 132 min

## O=c1c(O)c(-c2ccc(O)c(O)c2)oc2cc(O)cc(O)c12 [quercetin as aglycone, quercetin]
[4]; in humans, ref [54]
  AUC0–24 h: 2500 ± 2200 ng·h/mL
[4]; ref Petersen et al. [56]
  AUC0–1440 min of quercetin: 62 ± 12 µmol·min/L

## O=c1c(O[C@@H]2O[C@H](CO)[C@H](O)[C@H](O)[C@H]2O)c(-c2ccc(O)c(O)c2)oc2cc(O)cc(O)c12 [Quercetin-3-galactoside]
[1]; ref Duan et al. [24]
  Efflux ratio compared with quercetin-3-glucoside: higher efflux ratio
[4]; after ingestion of cranberry juice, ref Wang et al. [55]
  Concentration in plasma: 10 to 15 ng/mL

## C[C@@H]1O[C@@H](Oc2c(-c3cc(O)c(O)c(O)c3)oc3cc(O)cc(O)c3c2=O)[C@H](O)[C@H](O)[C@H]1O [myricetin-rhamnoside]
[5]; ref Ortega et al. [39]
  Recovery after a simulated digestion process: 51.5%
[5]
  Recovery after intestinal digestion: 40.2%

## isorhamnetin-3-O-glucosyl-rhamnosyl-pentoside [IGRP]
[2]; gastric phase, pH 2, pepsin
  Recovery percentage after gastric digestion phase: 96.2 ± 0.4 ^A,a %
[2]; [9]
  Recovery percentage after intestinal digestion phase: 80.3 ± 1.9 ^A,b %
[2]; oral phase, pH 6.9, α-amylase
  Recovery percentage after oral digestion phase: 93.8 ± 5.2 ^A,a %
[3]
  Efflux ratio [Papp(BL-AP)/Papp(AP-BL)]: 5.2
  Apparent permeability coefficient apical to basolateral, Papp(AP-BL): 1.28 ± 0.02 × 10^−6 cm/s

## COc1cc(-c2oc3cc(O)cc(O)c3c(=O)c2O)ccc1O [I, isorhamnetin]
[2]; intestinal phase, pH 7.5, pancreatin and bile salts, read-out: Recovery percentage after intestinal digestion phase
  recovery at 2 h, 0.33 mg/mL: 74.3 ± 7.4%
[2]; oral phase, pH 6.9, α-amylase, read-out: Recovery percentage after oral digestion phase
  recovery at 10 min, 0.5 mg/mL: 35 ± 2.4%
[2]; simulated in vitro digestion, gastric phase, pH 2, pepsin, read-out: Recovery percentage after gastric digestion phase
  recovery at 1 h: 49 ± 3.4%
[6]; Caco-2/HT-29 (Figure 2b), read-out: Efflux ratio [Papp(BL-AP)/Papp(AP-BL)]
  efflux ratio at 120 min: 0.6
[6]; Caco-2/HT-29 co-culture, digested samples, read-out: Apparent permeability coefficient apical to basolateral, Papp(AP-BL)
  Papp A→B at 120 min: 4.74 ± 0.02 ×10⁻⁶ cm/s
[3]; Caco-2/HT-29
  Papp basolateral to apical relative to Papp apical to basolateral: two-fold lower
[7]; rat plasma, isorhamnetin after acid hydrolysis, read-out: AUC0–1.5 h of isorhamnetin
  AUC(0-t): 104 ± 4.89 µM·h
[7]; rat plasma, read-out: Elimination half-life t1/2 (converted)
  half-life: 38.4 min
[7]; rat, read-out: CL plasma
  clearance: 7.44 ± 1.21 mL/min
[1]; Caco-2 cells, ref Lan et al. [35]
  Papp(AP-BL): 2.28 ± 0.09 × 10^−6 cm/s
[1]; Caco-2 monolayer, tested alone, ref Xie et al. [47]
  Papp: 1.61 ×10⁻⁶ cm/s
[1]; [10]
  Increase of Papp in combination with kaempferol: 1.33 fold
  Increase of Papp in combination with quercetin: 2.38 fold
[8]
  pKa: 6.3
[5]; from almond skins, ref [19]
  Bioaccessibility after a simulated digestion: 25.1 ± 7.0%

## C[C@@H]1O[C@@H](Oc2c(-c3ccc(O)c(O)c3)oc3cc(O)cc(O)c3c2=O)[C@H](O)[C@H](O)[C@H]1O [quercetin rhamnoside]
[5]
  Recovery after intestinal digestion: 47.9%

## isorhamnetin-3-O-glucosyl-rhamnosyl-rhamnoside [IGRR]
[2]; gastric phase, pH 2, pepsin
  Recovery percentage after gastric digestion phase: 96.0 ± 4.4 ^A,a %
[2]; [9]
  Recovery percentage after intestinal digestion phase: 79.5 ± 1.8 ^A,b %
[2]; oral phase, pH 6.9, α-amylase
  Recovery percentage after oral digestion phase: 99.1 ± 3.8 ^A,a %
[3]
  Efflux ratio [Papp(BL-AP)/Papp(AP-BL)]: 5.9
  Apparent permeability coefficient apical to basolateral, Papp(AP-BL): 1.03 ± 0.04 × 10^−6 cm/s

## quercetin-3-glucosyl-rhamnoside
[5]; ref Tenore et al. [37]
  Decrease in levels after intestinal digestion phase compared with gastric step: 18.6%

## isorhamnetin-3-O-glucosyl-rhamnoside [IGR]
[2]; gastric phase, pH 2, pepsin
  Recovery percentage after gastric digestion phase: 96.8 ± 0.9 ^A,a %
[2]; [9]
  Recovery percentage after intestinal digestion phase: 81.0 ± 4.6 ^A,b %
[2]; oral phase, pH 6.9, α-amylase
  Recovery percentage after oral digestion phase: 99.6 ± 3.8 ^A,a %
[3]
  Efflux ratio [Papp(BL-AP)/Papp(AP-BL)]: 3.1
  Apparent permeability coefficient apical to basolateral, Papp(AP-BL): 1.72 ± 0.01 × 10^−6 cm/s
[1]; Caco-2 monolayers, ref Tian et al. [23]
  Papp(AP-BL): 2.9e-07 cm/s
